Laboratory results from patent publication US20060128792A1, “Deguelin as a chemopreventive agent for lung cancer” (priority 2002, published 2006).
Values joined by “and” are separate entries in the source; they are usually repeats but may differ in a detail not shown here. Equal entries are not always repeated.

Experiments:
1799 cells = assay: Cell cycle analysis by flow cytometry (propidium iodide); type: cell-based; settings: 3 days
Procedure: (§1) Cell Cycle Analysis. Cells were plated on 10-cm dishes 1 day before treatment. After treatment with deguelin for 3 days, floating and adherent cells were harvested by trypsinization, fixed with 1% paraformaldehyde and 70% ethanol, stained with propidium iodide PI), and subjected to flow cytomnetric analysis to determine the percentages of cells in specific phases of the cell cycle (G1, S, and G2/M) as described previously (Sun et al., 1997).

NHBE cells [1] = assay: as above; type: cell-based; settings: 3 days
Procedure: as §1

Cal1 = assay: MTT assay, growth inhibition by deguelin or deguelin derivatives; type: cell-based; settings: 3 days
Cal6 = assay: as above; type: cell-based; settings: 3 days
NHBE cells [2] = assay: Apoptosis assay (TUNEL; DNA fragmentation); type: cell-based
Procedure: Apoptosis assay. Normal, premalignant, and malignant HBE cells were exposed to v various doses of deguelin for 3 days. […] Both adherent and floating cells were combined for the assessment of apoptosis using the APO-BRDU staining kit (Phoenix Flow Systems, San Diego, Calif.). Briefly, floating and attached cells dispersed with trypsin-EDTA were pelleted, washed, and fixed by 1% paraformaldehyde followed by 70% ethanol. The fixed cells were washed and incubated with DNA-labeling solution containing terminal deoxynucleotidyl transferase (TdT) reaction buffer, TdT enzyme, and bromodeoxyuridine triphosphate (Br-dUTP). Cells were rinsed, resuspended with fluorescein-PRB-I antibody solution, and analyzed by flow cytometry in the presence of PI/RNase solution. […] A dual display of DNA area (linear red fluorescence) and Br-dUTP incorporation (FITC-PRB-1) was used to determine the percentage of apoptotic cells.
The percentage of dead cells was determined by fluorescent-activated cell sorting (FACS) analysis of PI-stained nuclei. Apoptosis was also determined by the detection of nucleosomal DNA fragmentation, which was measured using the TACS apoptotic DNA Jaddering kit (Trevigen, Inc., Gaithersburg, Md.) according to the manufacturer's protocol. […] Apoptosis was analyzed using the APO-BRDU staining kit (Phoenix Flow Systems) as described above.

H226B = assay: MTT assay, growth inhibition by deguelin or deguelin derivatives; type: cell-based; settings: 3 days
[3] = tested on: chorioallantoic membrane (CAM) vessel formation; assay: CAM assay, anti-angiogenic activity; type: in vivo, chick embryos
Procedure: The anti-angiogenic activity of deguelin was assessed using a CAM assay. Chick embryos were incubation for 3 days after which, about 2 ml of egg albumin was removed from the embryo with a hypodermic needle to allow the CAM and yolk sac to drop away from the shell membrane. On day 3.5, the shell was punched out and removed and the shell membrane was peeled away. […] After the two day incubation period, 500 μl of 10% fat emulsion was injected into the chorioallantoic membrane and observed microscopically.
Retinoic acid, an anti-angiogenic compound, was used as a positive control for determining anti-angiogenic response. […] This independent experiment was repeated three times with more than 20 eggs.

Structure (SMILES): COc1cc2c(cc1OC)[C@@H]1C(=O)c3ccc4c(c3O[C@@H]1CO2)C=CC(C)(C)O4 [Deguelin]
- 1799 cells accumulated at the G2/M phase (1799 cells; 10^−7 M deguelin): 40.2%
- 1799 cells accumulated at the G2/M phase (1799 cells; 10^−8 M deguelin): 17.3%
- change in NHBE cell cycle (NHBE cells [1]): did not induce detectable change
- Avg. % con (Cal1; deguelin 10^−6M): 0.54 % con
- MTT value, mean of replicates (unheaded line) (Cal1; deguelin 10^−6M): 0.132
- MTT value, replicate (unheaded line) (Cal1; deguelin 10^−6M): 0.13 and 0.128 and 0.138
- Avg. % con (Cal1; deguelin 10^−8M): 0.88 % con
- MTT value, mean of replicates (unheaded line) (Cal1; deguelin 10^−8M): 0.214
- MTT value, replicate (unheaded line) (Cal1; deguelin 10^−8M): 0.204 and 0.221 and 0.216
- Avg. % con (Cal1; deguelin 10^−10M): 1.16 % con
- MTT value, mean of replicates (unheaded line) (Cal1; deguelin 10^−10M): 0.281
- MTT value, replicate (unheaded line) (Cal1; deguelin 10^−10M): 0.29 and 0.294 and 0.26
- Avg. % con (Cal1; deguelin 10^−12M): 1.30 % con
- MTT value, mean of replicates (unheaded line) (Cal1; deguelin 10^−12M): 0.317
- MTT value, replicate (unheaded line) (Cal1; deguelin 10^−12M): 0.305 and 0.328 and 0.319
- Avg. % con (Cal6; deguelin 10^−6M): 0.24 % con
- MTT value, mean of replicates (unheaded line) (Cal6; deguelin 10^−6M): 0.094
- MTT value, replicate (unheaded line) (Cal6; deguelin 10^−6M): 0.098 and 0.106 and 0.078
- Avg. % con (Cal6; deguelin 10^−8M): 0.88 % con
- MTT value, mean of replicates (unheaded line) (Cal6; deguelin 10^−8M): 0.345
- MTT value, replicate (unheaded line) (Cal6; deguelin 10^−8M): 0.356 and 0.338 and 0.341
- Avg. % con (Cal6; deguelin 10^−10M): 0.93 % con
- MTT value, mean of replicates (unheaded line) (Cal6; deguelin 10^−10M): 0.364
- MTT value, replicate (unheaded line) (Cal6; deguelin 10^−10M): 0.332 and 0.386 and 0.374
- Avg. % con (Cal6; deguelin 10^−12M): 0.92 % con
- MTT value, mean of replicates (unheaded line) (Cal6; deguelin 10^−12M): 0.360
- MTT value, replicate (unheaded line) (Cal6; deguelin 10^−12M): 0.357 and 0.358 and 0.366
- TUNEL and DNA fragmentation in NHBE cells (NHBE cells [2]): neither TUNEL-positive cell population nor DNA fragmentation
- Avg. % con (H226B; deguelin 10^−6M): 0.34 % con
- MTT value, mean of replicates (unheaded line) (H226B; deguelin 10^−6M): 0.113
- MTT value, replicate (unheaded line) (H226B; deguelin 10^−6M): 0.117 (2×) and 0.106
- Avg. % con (H226B; deguelin 10^−8M): 0.46 % con
- MTT value, mean of replicates (unheaded line) (H226B; deguelin 10^−8M): 0.150
- MTT value, replicate (unheaded line) (H226B; deguelin 10^−8M): 0.153 and 0.147 and 0.149
- Avg. % con (H226B; deguelin 10^−10M): 0.86 % con
- MTT value, mean of replicates (unheaded line) (H226B; deguelin 10^−10M): 0.283
- MTT value, replicate (unheaded line) (H226B; deguelin 10^−10M): 0.295 and 0.282 and 0.272
- Avg. % con (H226B; deguelin 10^−12M): 0.91 % con
- MTT value, mean of replicates (unheaded line) (H226B; deguelin 10^−12M): 0.299
- MTT value, replicate (unheaded line) (H226B; deguelin 10^−12M): 0.274 and 0.32 and 0.304
- anti-angiogenic activity (percentage of positive eggs) ([3]; 5 nmol/egg, 2 days): 59.2%
- egg lethality ([3]; CAM assay, without any signs of thrombosis and hemorrhage): negligible
